Values of other authors in patent US12343434B2, “Hybrid membrane camouflaged nanomedicine loaded with oxidative phosphorylation inhibitor and preparing method thereof” (Henan University, priority 2021, dated 2025).

Details: background statement

- blood half-life: extremely short
Compound: CCc1n(CC(=O)O[C@@H]2C[C@H](C)CC[C@H]2C(C)C)c2ccccc2[n+]1C.[Cl-] [Gboxin, 1-carboxymethyl-2-ethyl-3-methyl-1H-benzimidazole-3-ammonium L-menthol ester chloride]
